Read-outs that look alike come from different tables or passages of the source.
What was measured:
[1] = test system: L1210 cell line (mouse leukemia); test: Cytotoxic activity, L1210 cell line; type: cell-based
Experimental: (§1) The O-amino phenol derivatives bearing the N—O prodrug linkages and the various N-acyl substituents were assayed for cytotoxic activity alongside the parent drugs CBI-TMI (2) (Boger, D. L.; Yun, W. J. Am. Chem. Soc. 1994, 116, 7996) and mitomycin C (Boger, D. L.; et al. Bioorg. Med. Chem. Lett. 1991, 1, 115; Boger, D. L.; et al. Bioorg. Med. Chem. 1995, 3, 1429) as well as the two control standards 9 and 10 incapable of free phenol release. Three cell lines were examined including a standard L1210 cell line (mouse leukemia) as well as the mitomycin-sensitive (H460, expresses high levels of DT-Diaphorase) and resistant (H596, lacks DT-Diaphorase) non small cell lung cancer (NSCLC) cell lines, with results shown in the Table below.

[2] = test system: H460 (mitomycin-sensitive, expresses high levels of DT-Diaphorase) non small cell lung cancer (NSCLC) cell line; test: Cytotoxic activity, H460 cell line; type: cell-based
Experimental: as §1

[3] = test system: H596 (mitomycin-resistant, lacks DT-Diaphorase) non small cell lung cancer (NSCLC) cell line; test: Cytotoxic activity, H596 cell line; type: cell-based
Experimental: as §1

[4] = test system: L1210 murine leukemia implanted i.p. into DBA/2J mice; test: In vivo antitumor activity, L1210 i.p. in DBA/2J mice (30% DMSO in 0.1% glucose); parameters: species or system mouse; conditions: for Surviving Mice: 365 days; for weight loss of treated animals: days 30-100, highest dosing
Description: The prodrug 8 was examined for in vivo efficacy alongside the parent drug 3 in a standard antitumor model enlisting L1210 murine leukemia implanted i.p. into DBA/2J mice. This model has been reported to respond well to the parent drugs of related compounds (Li, L. H.; et al. Invest. New Drugs 1991, 9, 137) and is a system that collaborators through the years have used to assess an extensive series of (+)-CBI-indole2 analogues. Although not published, these latter studies provided the foundation on which examination of 8 is based.
With use the dose range (10-100 μg/kg) and the dosing schedule (administered three times i.p. on days 1, 5, and 9) found suitable for related parent drugs including (+)-CBI-indole2 (3) (Boger, D. L.; et al. Bioorg. Med. Chem. Lett. 1991, 1, 115; Boger, D. L.; et al. Bioorg. Med. Chem. 1995, 3, 1429), the prodrug 8 was examined as is shown in the Table below.
DBA/2J mice were purchased from Jackson Laboratory (Bar Harbor, Me.) and housed in the animal facility at The Scripps Research Institute. L1210 tumor cells, originally isolated from DBA/2 mice, were cultured in DMEM medium containing 5% fetal calf serum. For tumor implantation, DBA/2J mice were i.p. injected with 1×10^5 L1210 cells at day 0.
Compounds 3 and 8 were formulated with 30% DMSO plus 0.1% glucose solution. Treatment doses of drugs (0, 10, 30, 100 µg/kg wt. of animal) were i.p. injected consecutively on day 1, 5 and 9. The study was performed with six mice per group. Tumor growth in the peritoneal cavity was monitored daily and the death of animals was recorded. If necessary, weights of animals were measured once a week. To date this monitoring of the animals has lasted 365 days.

[5] = test system: L1210 murine leukemia implanted i.p. into DBA/2J mice; test: In vivo antitumor activity, second site (neat DMSO, terminated after 120 days); parameters: species or system mouse; conditions: for Surviving Mice: still living after 120 days
Experimental: Confirming these observations, an analogous antitumor assessment was carried out independently at a second site utilizing a slightly different and harsher protocol for drug administration (neat DMSO vs 30% DMSO in 0.1% glucose).
In the above Table, the second column is the dose in mg/kg of body weight of the animal that is administered i.p. (into the intraperitoneal cavity) on days 1, 5, and 9. The surviving mice are the number of mice that are still living after 120 days and the experiment was then terminated.
An analogous study with 10 mice per group was performed at the University of Kansas with the distinction that the compounds were administered in neat DMSO (0, 10, 30, 60, 100 µg/kg wt. of animal) and the study was terminated after 120 days.

[6] = Chemical stability and reactivity of the N-acyl O-amino phenol derivatives; type: physicochemical
[7] = Mus musculus, L1210, read-out: IC50 (nM) L1210, natural enantiomer series, CBI-TMI derivatives
[8] = unnatural enantiomer series, CBI-TMI derivatives, read-out: IC50 (nM) L1210
[9] = Homo sapiens, NCI-H460, read-out: IC50 (nM) H460
[10] = unnatural enantiomer series, CBI-TMI derivatives, read-out: IC50 (nM) H460
[11] = Homo sapiens, NCI-H596, read-out: IC50 (nM) H596
[12] = unnatural enantiomer series, CBI-TMI derivatives, read-out: IC50 (nM) H596
[13] = unnatural enantiomer series, CBI-indole2 derivatives, read-out: IC50 (nM) L1210
[14] = unnatural enantiomer series, CBI-indole2 derivatives, read-out: IC50 (nM) H460
[15] = Homo sapiens, NCI-H596, natural enantiomer series, CBI-indole2 derivatives, read-out: IC50 (nM) H596
[16] = unnatural enantiomer series, CBI-indole2 derivatives, read-out: IC50 (nM) H596
[17] = 10 μg/kg i.p. days 1, 5, 9, neat DMSO
[18] = 30 μg/kg i.p. days 1, 5, 9, neat DMSO
[19] = 60 μg/kg i.p. days 1, 5, 9, neat DMSO
[20] = 100 μg/kg i.p. days 1, 5, 9, neat DMSO

COc1cc2cc(C(=O)N3C[C@@H](CCl)c4c3cc(O)c3ccccc43)[nH]c2c(OC)c1OC [Compound 2, seco-CBI-TMI, reference compound]
IC50 [1, 7]: 0.04 nM | IC50 [1, 8]: 5 nM | IC50 [2, 9]: 0.5 nM | IC50 [2, 10]: 50 nM | fold lower sensitivity of H596 than H460 ([3]; H596 versus H460): 10 fold | IC50 [3, 11]: 5 nM | IC50 [3, 12]: 300 nM

O=C(Nc1ccc2[nH]c(C(=O)N3C[C@@H](CCl)c4c3cc(O)c3ccccc43)cc2c1)c1cc2ccccc2[nH]1 [Compound 3, seco-CBI-indole2, reference compound]
IC50 ([1]; Mus musculus, L1210, natural enantiomer series, CBI-indole2 derivatives, read-out: IC50 (nM) L1210): 0.03 nM | IC50 [1, 13]: 0.7 nM | IC50 ([2]; Homo sapiens, NCI-H460, natural enantiomer series, CBI-indole2 derivatives, read-out: IC50 (nM) H460): 0.2 nM | IC50 [2, 14]: 6 nM | IC50 [3, 15]: 2 nM | IC50 [3, 16]: 40 nM | Mean Survival Period (MSP) ([4]; 10 μg/kg i.p. days 1, 5, 9): 34 days | Treated/Control (MSP × 100) ([4]; 10 μg/kg i.p. days 1, 5, 9): 170 | Surviving Mice ([4]; 10 μg/kg i.p. days 1, 5, 9): 0/6 | Mean Survival Period (MSP) ([4]; 30 μg/kg i.p. days 1, 5, 9): >115 days | Treated/Control (MSP × 100) ([4]; 30 μg/kg i.p. days 1, 5, 9): >580 | Surviving Mice ([4]; 30 μg/kg i.p. days 1, 5, 9): 1/6 | Mean Survival Period (MSP) ([4]; 100 μg/kg i.p. days 1, 5, 9): 125 days | Treated/Control (MSP × 100) ([4]; 100 μg/kg i.p. days 1, 5, 9): 625 | Surviving Mice ([4]; 100 μg/kg i.p. days 1, 5, 9): 0/6 | weight loss of treated animals [4]: weight loss that was evident | fate of surviving mice at day 90 ([4]; prolonged management beyond day 90): eventually expired due to drug administration related complications | Mean Survival Period (MSP) [5, 17]: >60 days | Treated/Control (MSP × 100) [5, 17]: >271 | Surviving Mice ([5]; 10 μg/kg): 3/10 | Mean Survival Period (MSP) [5, 18]: >65 days | Treated/Control (MSP × 100) [5, 18]: >295 | Surviving Mice ([5]; 30 μg/kg): 3/10 | Mean Survival Period (MSP) [5, 19]: >71 days | Treated/Control (MSP × 100) [5, 19]: >324 | Surviving Mice ([5]; 60 μg/kg): 3/10 | Mean Survival Period (MSP) [5, 20]: 11 days | Treated/Control (MSP × 100) [5, 20]: 52 | Surviving Mice ([5]; 100 μg/kg): 0/10

COc1cc2cc(C(=O)N3C[C@@H](CCl)c4c3cc(ONC(C)=O)c3ccccc43)[nH]c2c(OC)c1OC [Compound 5]
IC50 [1, 7]: 0.3 nM | IC50 [2, 9]: 0.7 nM | IC50 [3, 11]: 7 nM | stability on long term storage ([6]; storage): withstanding even long term storage effectively

COc1cc2cc(C(=O)N3C[C@@H](CCl)c4c3cc(ON(C(C)=O)C(=O)OC(C)(C)C)c3ccccc43)[nH]c2c(OC)c1OC [Compound 6]
IC50 [1, 7]: 0.2 nM | IC50 [2, 9]: 0.6 nM | IC50 [3, 11]: 5 nM | stability to acidic conditions ([6]; TFA-CH2Cl2, 4 N HCl-EtOAc): surprisingly robust to acidic conditions

COc1cc2cc(C(=O)N3CC(CCl)c4c3cc(ON3C(=O)c5ccccc5C3=O)c3ccccc43)[nH]c2c(OC)c1OC (centres unmarked) [Compound 7]
IC50 [1, 8]: 60 nM | IC50 [2, 10]: 600 nM | IC50 [3, 12]: 6000 nM

CC(C)(C)OC(=O)NOc1cc2c(c3ccccc13)[C@H](CCl)CN2C(=O)c1cc2cc(NC(=O)c3cc4ccccc4[nH]3)ccc2[nH]1 [Compound 8]
IC50 ([1]; Mus musculus, L1210, read-out: IC50 (nM) L1210, natural enantiomer series, CBI-indole2 derivatives): 0.05 nM | IC50 ([1]; Mus musculus, L1210, text range over L1210 and H460, natural enantiomer): 0.03 to 0.2 nM | potency compared with CBI-indole2 (3) ([1]; in each cell line examined): essentially equipotent | times more active than mitomycin C ([1]; natural enantiomer): 100-1000 times | fold less active than the natural enantiomer ([1]; unnatural enantiomer of prodrug 8): 10-100 fold | IC50 [2, 9]: 0.3 nM | IC50 [3, 15]: 4 nM | Mean Survival Period (MSP) ([4]; 10 μg/kg i.p. days 1, 5, 9): 25 days | Treated/Control (MSP × 100) ([4]; 10 μg/kg i.p. days 1, 5, 9): 120 | Surviving Mice ([4]; 10 μg/kg i.p. days 1, 5, 9): 0/6 | Mean Survival Period (MSP) ([4]; 30 μg/kg i.p. days 1, 5, 9): >145 days | Treated/Control (MSP × 100) ([4]; 30 μg/kg i.p. days 1, 5, 9): >730 | Surviving Mice ([4]; 30 μg/kg i.p. days 1, 5, 9): 2/6 | Mean Survival Period (MSP) ([4]; 100 μg/kg i.p. days 1, 5, 9): >310 days | Treated/Control (MSP × 100) ([4]; 100 μg/kg i.p. days 1, 5, 9): >1550 | Surviving Mice ([4]; 100 μg/kg i.p. days 1, 5, 9): 5/6 | weight loss of treated animals [4]: little or no weight loss | Mean Survival Period (MSP) [5, 17]: >46 days | Treated/Control (MSP × 100) [5, 17]: >210 | Surviving Mice ([5]; 10 μg/kg): 2/10 | Mean Survival Period (MSP) [5, 18]: >51 days | Treated/Control (MSP × 100) [5, 18]: >232 | Surviving Mice ([5]; 30 μg/kg): 2/10 | Mean Survival Period (MSP) [5, 19]: >93 days | Treated/Control (MSP × 100) [5, 19]: >425 | Surviving Mice ([5]; 60 μg/kg): 7/10 | Mean Survival Period (MSP) [5, 20]: >63 days | Treated/Control (MSP × 100) [5, 20]: >288 | Surviving Mice ([5]; 100 μg/kg): 3/10 | efficacy compared with free drug 3 ([5]; deaths due to the disease, tumor counts, tumor volume): comparable or superior in terms of reducing deaths due to the disease, tumor counts, and tumor volume | toxicity of administration compared with free drug 3 ([5]; neat DMSO, 120 days): significantly less toxic than free drug 3

CO[C@@]12[C@H](COC(N)=O)C3=C(C(=O)C(C)=C(N)C3=O)N1C[C@@H]1N[C@@H]12 [mitomycin C, reference compound]
IC50 ([1]; natural enantiomer series, CBI-TMI derivatives, read-out: IC50 (nM) L1210): 40 nM | IC50 ([1]; natural enantiomer series, CBI-indole2 derivatives, read-out: IC50 (nM) L1210): 40 nM | IC50 ([1]; text range over L1210 and H460, read-out: IC50): 20 to 40 nM | IC50 [1, 8]: 40 nM | IC50 [1, 13]: 40 nM | IC50 ([2]; natural enantiomer series, CBI-TMI derivatives, read-out: IC50 (nM) H460): 20 nM | IC50 ([2]; natural enantiomer series, CBI-indole2 derivatives, read-out: IC50 (nM) H460): 20 nM | IC50 [2, 10]: 20 nM | IC50 [2, 14]: 20 nM | IC50 ([3]; mitomycin-resistant H596 cell line, read-out: IC50): 5000 nM | IC50 ([3]; natural enantiomer series, CBI-TMI derivatives, read-out: IC50 (nM) H596): 5000 nM | IC50 ([3]; natural enantiomer series, CBI-indole2 derivatives, read-out: IC50 (nM) H596): 5000 nM | IC50 [3, 12]: 5000 nM | IC50 [3, 16]: 5000 nM

From patent US8377981B2, “CBI derivatives subject to reductive activation” (The Scripps Research Institute, priority 2007, dated 2013)
